In one assay the test system is MMP9 activity. Briefly: PMA-induced MMP9 activation in U937 cells (gelatin zymography). The format is cell-based, human. Particulars: for IC50: Homo sapiens. The procedure:
Effects of macrolides on phorbol 12-myristate 13-acetate (PMA)-induced MMP9 activation in U937 cells. […] After 48 h supernatants were collected for zymography. MMP9 enzyme activity was measured by gelatin zymography. Data are expressed relative to standard.
(§1) The human monocytic cell line U937 was obtained from the American Type Culture Collection (ATCC, Rockville, Md.). PBMCs from COPD patients were obtained from Brompton hospital and separated by AccuSPIN (Sigma-Aldrich). Cells were cultured in complete growth medium (RPMI 1640) (Sigma-Aldrich) supplemented with 10% fetal bovine serum (FBS) and 1% L-glutamine at 37° C. in a humidified atmosphere with 5% CO2. U937 cells were differentiated into adherent macrophage-like morphology by exposure to PMA (50 ng/mL) for 48 hrs in complete growth medium. Cell viability was assessed microscopically by trypan blue staining. Cell toxicity was determined by MTT assay as needed. This study was approved by the ethics committee of the Royal Brompton Hospitals, and all subjects gave written informed consent.
MMP9 enzyme activity was measured by gelatin zymography. Cell culture supernatants were diluted with equal amount of Laemli sample buffer (Bio-Rad, Hertfordshire, UK) and loaded on a Novex® 10% Zymogram (Gelatin) gel (Invitrogen Ltd, Paisley, UK). After electrophoresis, gels were incubated and rinsed with Novex® zymogram renaturing buffer (Invitrogen) for 30 min at room temperature. The gels were then rinsed in Novex® zymogram developing buffer (Invitrogen) for 30 min at room temperature prior to overnight incubation in the developing buffer at 37° C. After incubation, the gels were stained using a Colloidal Blue Staining Kit (Invitrogen) to visualize the zymogen bands.
(§2) The results were expressed as the mean±SEM. Comparisons of data in two groups were performed using the Student's t test or the Wilcoxon signed rank test. Multiple comparisons were made by one-way ANOVA with post hoc test (Dunnett's) as appropriate. The difference was considered significant at p<0.05. IC50 values (50% inhibitory concentration) for macrolides for production of cytokines or MMP9 were calculated using Prism 4.0 (GraphPad Software Inc., San Diego, Calif.).

The subject of another assay is IL-8 (CXCL8) release. Briefly: LPS-induced IL-8 (CXCL8) release in PMA-differentiated U937 cells (ELISA). The format is cell-based, human. The procedure: Effects of macrolides on lipopolysaccharide (LPS)-induced CXCL8 release in PMA-differentiated U937 cells. […] LPS-induced CXCL8 release was evaluated by ELISA. Values represent means of three experiments±SEM. ^##p<0.01 (vs. non-treatment control), *p<0.05, **p<0.01 (vs. treatment with LPS only).
as §1
TNFα and IL-8 concentrations in the supernatant of cell cultures were determined by sandwich ELISA according to the manufacturer's instructions (R&D Systems Europe, Abingdon, UK).
as §2

A further assay concerns P. aeruginosa PAO1. The assay is described as follows: MIC by microdilution with PaβN or EGTA, wild-type strain. It counts as cell-based. Particulars: Pseudomonas aeruginosa. The method, then:
(§3) MICs of 36 clinical and laboratory strains of PA with known efflux phenotype are measured by microdilution in cation-adjusted Muller-Hinton broth (CA-MHB) or in RPMI medium (commonly used in eukaryotic cell culture). Phe-Arg-β-naphthylamide (PaβN, 50 mg/L) and EGTA 5 mM are used to inhibit efflux pumps and alter OM integrity, respectively. P. aeruginosa strain ATCC PAO1 is used as reference. PA12 is a clinical strain overexpressing the 4 main efflux systems (MexAB, MexCD, MexEF, MexXY), PA403 is a laboratory strain deleted in the genes coding for the 4 efflux systems. A series of reference strains or of clinical isolates for which the expression of genes coding for efflux pumps is known is also used for MICs determinations. MICs are measured by microdilution in MH broth or in RPMI medium (used for eukaryotic cells culture) supplemented with 10% of fetal calf serum, or in MH broth supplemented by increasing amounts of serum. EGTA (5 mM) was used as a chelating agent (disrupting outer membrane integrity) and PaβN (50 mg/L) as an unspecific efflux inhibitor.

The next assay relates to P. aeruginosa PA403. Briefly: MIC by microdilution with PaβN or EGTA, efflux-deleted laboratory strain. As to conditions: Pseudomonas aeruginosa, read-out: MIC. The format is cell-based. The procedure:
as §3, with “The compounds described herein are poor substrates of efflux pumps expressed in P. aeruginosa (PA). MICs of” for “MICs of”

The mark [1] stands for this setting: U-937, read-out: IC50, PMA-induced MMP9 activation.
[2] abbreviates: Homo sapiens, U-937, U937 cells, at 333 μM, read-out: IC50, LPS-induced IL-8 release: NE at 333 μM.
Setting [3] is: PAO1, PAO1, CA-MHB, EGTA 5 mM, read-out: MIC.
The mark [4] stands for this setting: PAO1, PAO1, CA-MHB, PaβN 50 mg/L, read-out: MIC.
The mark [5] stands for this setting: PAO1, PAO1, CA-MHB, control conditions (CT).
The mark [6] stands for this setting: PAO1, PAO1, RPMI, EGTA 5 mM, read-out: MIC.
Setting [7] is: PAO1, PAO1, RPMI, PaβN 50 mg/L, read-out: MIC.
Where [8] appears, read: PAO1, PAO1, RPMI, control conditions (CT), read-out: MIC.
[9] abbreviates: PA403, P403, CA-MHB, control conditions (CT).
[10] abbreviates: PA403, P403, RPMI, PaβN 50 mg/L.
[11] abbreviates: PA403, P403, RPMI, control conditions (CT).

SMILES strings stand for the structures. In brackets after ≈: the same amount, converted by molar mass. Read-outs that look alike come from different tables or passages of the source. Where only a bound is given, the exact number is not on record here.

In the case of `CC[C@H]1OC(=O)[C@H](C)[C@@H](O[C@H]2C[C@@](C)(OC)[C@@H](O)[C@H](C)O2)[C@H](C)[C@@H](O[C@@H]2O[C@H](C)C[C@H](N(C)C)[C@H]2O)[C@](C)(O)C[C@@H](C)CN(C)[C@H](C)[C@@H](O)[C@]1(C)O` [AZM, azithromycin], in the assay with MMP9 activity, the “inhibitory effect on MMP9 activity, lower than CEM-101” value is 10 fold. Besides, the IC50 is 212 µM in the assay on MMP9 activity (setting [1]) and greater than 333 µM in the assay with IL-8 (CXCL8) release (setting [2]). The “effect on IL-8 production” value in the assay with IL-8 (CXCL8) release (33 to 333 μM (FIG. 4)) is listed as “did not inhibit”. For the same molecule, the minimum inhibitory concentration (MIC) with P. aeruginosa PAO1 (setting [3]) came to 8 µg/mL (≈ 10.7 µM); in the assay with P. aeruginosa PAO1 (setting [4]), 4 µg/mL (≈ 5.34 µM); in the assay with P. aeruginosa PAO1 (setting [5]), 128 µg/mL (≈ 171 µM); in the assay on P. aeruginosa PAO1 (setting [6]) it was 0.25 µg/mL (≈ 0.334 µM); in the assay with P. aeruginosa PAO1 (setting [7]), 4 µg/mL (≈ 5.34 µM); in the assay on P. aeruginosa PAO1 (setting [8]), 2 µg/mL (≈ 2.67 µM).

For the molecule `CC[C@H]1OC(=O)[C@H](C)C(=O)[C@H](C)[C@@H](O[C@@H]2O[C@H](C)C[C@H](N(C)C)[C@H]2O)[C@](C)(OC)C[C@@H](C)C(=O)[C@H](C)[C@H]2N(CCCCn3cnc(-c4cccnc4)c3)C(=O)O[C@]12C` [TEL, telithromycin], the minimum inhibitory concentration (MIC) in the assay on P. aeruginosa PA403 (PA403, P403, CA-MHB, EGTA 5 mM) was 2 µg/mL (≈ 2.46 µM); in the assay with P. aeruginosa PA403 (setting [9]), 4 µg/mL (≈ 4.93 µM); in the assay with P. aeruginosa PA403 (PA403, P403, RPMI, EGTA 5 mM) it was 0.06 µg/mL (≈ 0.0739 µM); with P. aeruginosa PA403 (setting [10]) it was 1 µg/mL (≈ 1.23 µM); with P. aeruginosa PA403 (setting [11]), 0.5 µg/mL (≈ 0.616 µM); in the assay with P. aeruginosa PAO1 (setting [3]) it was 32 µg/mL (≈ 39.4 µM). Further, the minimum inhibitory concentration (MIC) in the assay on P. aeruginosa PAO1 (setting [4]) is 4 µg/mL (≈ 4.93 µM); against P. aeruginosa PAO1 (setting [5]), 128 µg/mL (≈ 158 µM); with P. aeruginosa PAO1 (setting [6]) it was 1 µg/mL (≈ 1.23 µM); in the assay with P. aeruginosa PAO1 (setting [7]), 4 µg/mL (≈ 4.93 µM); in the assay with P. aeruginosa PAO1 (setting [8]), 2 µg/mL (≈ 2.46 µM). Further, the IC50 with IL-8 (CXCL8) release (Homo sapiens, U-937, read-out: IC50, LPS-induced IL-8 release: NE at 100 μM, U937 cells, at 100 μM) is greater than 100 µM. Also, in the assay with IL-8 (CXCL8) release (at 100 μM), the “effect on CXCL8 production” value is given as “did not inhibit”.

Take `CC[C@H]1OC(=O)[C@H](C)[C@@H](O[C@H]2C[C@@](C)(OC)[C@@H](O)[C@H](C)O2)[C@H](C)[C@@H](O[C@@H]2O[C@H](C)C[C@H](N(C)C)[C@H]2O)[C@](C)(O)C[C@@H](C)C(=O)[C@H](C)[C@@H](O)[C@]1(C)O` [ERY, erythromycin]: the MIC is 16 µg/mL (≈ 21.8 µM) in the assay with P. aeruginosa PA403 (PA403, P403, CA-MHB, EGTA 5 mM); 16 µg/mL (≈ 21.8 µM) in the assay with P. aeruginosa PA403 (setting [9]); 0.5 µg/mL (≈ 0.681 µM) in the assay with P. aeruginosa PA403 (PA403, P403, RPMI, EGTA 5 mM); 4 µg/mL (≈ 5.45 µM) with P. aeruginosa PA403 (setting [10]); 4 µg/mL (≈ 5.45 µM) in the assay with P. aeruginosa PA403 (setting [11]); 16 µg/mL (≈ 21.8 µM) in the assay on P. aeruginosa PAO1 (setting [4]). Also, the MIC against P. aeruginosa PAO1 (setting [5]) stood at 512 µg/mL (≈ 698 µM); in the assay on P. aeruginosa PAO1 (setting [6]) it was 32 µg/mL (≈ 43.6 µM); in the assay on P. aeruginosa PAO1 (setting [7]), 32 µg/mL (≈ 43.6 µM); in the assay on P. aeruginosa PAO1 (setting [8]) it was 32 µg/mL (≈ 43.6 µM). Further, the “effect on MMP9 activity” value in the assay with MMP9 activity is reported as “no effect”. For the same molecule, the half-inhibitory concentration (IC50) is greater than 333 µM with MMP9 activity (U-937, at 333 μM, read-out: IC50, PMA-induced MMP9 activation: NE at 333 μM) and greater than 333 µM with IL-8 (CXCL8) release (setting [2]). The “effect on IL-8 production” value in the assay on IL-8 (CXCL8) release (33 to 333 μM (FIG. 4)) was “did not inhibit”.

On to `CC[C@H]1OC(=O)[C@H](C)[C@@H](O[C@H]2C[C@@](C)(OC)[C@@H](O)[C@H](C)O2)[C@H](C)[C@@H](O[C@@H]2O[C@H](C)C[C@H](N(C)C)[C@H]2O)[C@](C)(OC)C[C@@H](C)C(=O)[C@H](C)[C@@H](O)[C@]1(C)O` [CLR, clarithromycin], for which the MIC was 32 µg/mL (≈ 42.8 µM) with P. aeruginosa PA403 (PA403, P403, CA-MHB, EGTA 5 mM); 16 µg/mL (≈ 21.4 µM) in the assay on P. aeruginosa PA403 (setting [9]); 0.5 µg/mL (≈ 0.668 µM) in the assay with P. aeruginosa PA403 (PA403, P403, RPMI, EGTA 5 mM); 4 µg/mL (≈ 5.35 µM) in the assay on P. aeruginosa PA403 (setting [10]); 4 µg/mL (≈ 5.35 µM) in the assay on P. aeruginosa PA403 (setting [11]); 8 µg/mL (≈ 10.7 µM) in the assay on P. aeruginosa PAO1 (setting [4]). In addition, the MIC is 512 µg/mL (≈ 685 µM) in the assay on P. aeruginosa PAO1 (setting [5]), 32 µg/mL (≈ 42.8 µM) in the assay with P. aeruginosa PAO1 (setting [6]), 4 µg/mL (≈ 5.35 µM) in the assay on P. aeruginosa PAO1 (setting [7]) and 32 µg/mL (≈ 42.8 µM) with P. aeruginosa PAO1 (setting [8]). Further, in the assay on MMP9 activity, the “inhibitory effect on MMP9 activity, lower than CEM-101” value came out at 10 fold. The half-inhibitory concentration (IC50) worked out at 118 µM in the assay on MMP9 activity (setting [1]) and 506 µM in the assay on IL-8 (CXCL8) release (PMA-differentiated U937 cells, read-out: IC50, LPS-induced IL-8 (CXCL8) release). Also, the “effect on IL-8 production” value with IL-8 (CXCL8) release (at a higher concentration (333 μM)) was “modest effects”.

The values are drawn from patent US9861616B2, “Methods for treating respiratory diseases and formulations therefor” (priority 2013, dated 2018).
